Experimental data published in ChEMBL document CHEMBL6182905, “Fluorinated sulfonamide-flavonoid derivatives as novel Keap1-Nrf2 inhibitors: Potent induction of cytoprotective gene HO-1 in vivo” (Eur J Med Chem, 2025).

The compounds below were run on AML12 (assay: Activation of Nrf2 in LPS-stimulated mouse AML12 cells assessed as fold increase in HO-1 gene expression at 10 uM incubated for 16 hrs). Conditions: filed as activator.
Format: cell-based

Structure (SMILES)	fold change (FC)
COc1ccc(-c2cc(=O)c3ccc(NS(=O)(=O)c4cccnc4)cc3o2)cc1	5.3
COc1ccc(-c2cc(=O)c3ccc(NS(=O)(=O)c4ccc(C)cc4)cc3o2)cc1	3.1
O=C1c2c(O)cc(O)cc2O[C@H](c2cc(O)c(O)c(O)c2)[C@H]1O	1.4
COc1ccc(-c2cc(=O)c3ccc(NS(=O)(=O)c4c(C)c(C)cc(C)c4C)cc3o2)cc1	2.8
CCc1ccc(S(=O)(=O)Nc2ccc3c(=O)cc(-c4ccc(OC)cc4)oc3c2)cc1	5
COC(=O)CN(c1ccc2c(=O)cc(-c3ccc(OC)cc3)oc2c1)S(=O)(=O)c1ccc(F)cc1	4.8
COc1ccc(-c2cc(=O)c3ccc(NS(=O)(=O)c4ccc([N+](=O)[O-])cc4)cc3o2)cc1	3.3
COc1ccc(-c2cc(=O)c3ccc(NS(=O)(=O)c4ccc(OC)cc4OC)cc3o2)cc1	4
COc1ccc(-c2cc(=O)c3ccc(NS(=O)(=O)c4ccc(C(F)(F)F)cc4)cc3o2)cc1	4.8
C[S+]([O-])CCCCN=C=S (configuration not stated)	5.8
COc1ccc(-c2cc(=O)c3ccc(NS(=O)(=O)c4ccccc4F)cc3o2)cc1	3.4
COc1ccc(-c2cc(=O)c3ccc(NS(=O)(=O)c4ccc(C)cc4C)cc3o2)cc1	3
COc1ccc(-c2cc(=O)c3ccc(NS(=O)(=O)c4ccccc4OC(F)(F)F)cc3o2)cc1	3.9
CCCCOc1ccc(S(=O)(=O)Nc2ccc3c(=O)cc(-c4ccc(OC)cc4)oc3c2)cc1	2.3
O=C1C[C@@H](c2ccc(O)cc2)Oc2cc(O)ccc21	2
COc1ccc(-c2cc(=O)c3ccc(NS(=O)(=O)c4ccc(OC(F)(F)F)cc4)cc3o2)cc1	7

Structure (SMILES)	fold change (FC)
COc1ccc(-c2cc(=O)c3ccc(NS(=O)(=O)c4cccs4)cc3o2)cc1	3.4
COc1ccc(-c2cc(=O)c3ccc(NS(=O)(=O)c4cccc(OC(F)(F)F)c4)cc3o2)cc1	4.2
COc1ccc(-c2cc(=O)c3ccc(NS(=O)(=O)c4ccc(C(C)C)cc4)cc3o2)cc1	3.4
COc1ccc(-c2cc(=O)c3ccc(N(CC(N)=O)S(=O)(=O)c4ccc(OC)cc4)cc3o2)cc1	2.3
COc1ccc(-c2cc(=O)c3ccc(NS(=O)(=O)c4ccc(F)cc4Br)cc3o2)cc1	3.2
COC(=O)CN(c1ccc2c(=O)cc(-c3ccc(OC)cc3)oc2c1)S(=O)(=O)c1ccc(C(F)(F)F)cc1	2.6
COc1ccc(-c2cc(=O)c3ccc(NS(=O)(=O)c4ccc(F)c(Cl)c4)cc3o2)cc1	4
COC(=O)CN(c1ccc2c(=O)cc(-c3ccc(OC)cc3)oc2c1)S(=O)(=O)c1ccc(OC)cc1	3.5
COc1ccc(-c2cc(=O)c3ccc(NS(=O)(=O)c4ccc(F)cc4Cl)cc3o2)cc1	3.6
O=c1cc(-c2ccc(O)cc2)oc2cc(O)cc(O)c12	1.8
COc1ccc(-c2cc(=O)c3ccc(NS(=O)(=O)c4cccc(OC)c4)cc3o2)cc1	3.7
COc1ccc(-c2cc(=O)c3ccc(NS(=O)(=O)c4ccc(OC)cc4)cc3o2)cc1	4.6
COc1ccc(-c2cc(=O)c3ccc(NS(=O)(=O)c4ccc(F)c(Br)c4)cc3o2)cc1	4.2
O=c1c(O)c(-c2ccc(O)c(O)c2)oc2cc(O)cc(O)c12	1.4
COc1ccc(-c2cc(=O)c3ccc(NS(=O)(=O)c4ccccc4OC)cc3o2)cc1	3.3
COc1ccc(-c2cc(=O)c3ccc(NS(=O)(=O)c4cccc(F)c4)cc3o2)cc1	4.5
